Assay results reported in patent EP0311724A1, “Anxiolytic-R-N-(1-azabicyclo[2.2.2]oct-3-yl) benzamides and thiobenzamides” (SYNTHELABO, priority 1987, dated 1989).
Where a name gives a salt, the structure may show the parent alone.

Columns and labels:
mouse = assay: Exploratory behaviour of the mouse in a two-compartment box (method of Crawley and Goodwin); assay type: in vivo; parameters: key: +: significant increase vs. control; -: significant decrease vs. control; ns: no significant change vs. control; settings: dose 0.1-10 mg/kg ip, change vs. control
Procedure: (§1) The anxiolytic activity was determined by the method of Costall et al details of which are to be found in the pharmacology examples later in this specification. In brief, the method involves seeing whether the compound under test reduced the natural anxiety of mice in brightly-lit areas. Anxiolytic activity was also assessed by the method of Crawley and Goodwin (Pharm. Biochem. Behavior (1980), 13,167-170).
Compounds of the invention have been studied in the laboratory animal to evaluate their anxiolytic activity. As a typical compound of the invention, R(+)-4-Amino-N-(3-quinuclidinyl)-5-chloro-2-methoxy benzamide dihydrochloride (R(+)-4-Amino-N-(1-azabicyclo[2.2.2]oct-3-yl)-5-chloro-2-methoxybenzamide dihydrochloride), the compound of Example 14, was investigated for its anxiolytic activity, which was compared with that of the racemate (unresolved product of Example 2) and the corresponding enantiomer of absolute configuration S (product of Comparison Example 1).
The method used in this example was that described by Crawley and Goodwin (Pharm. Biochem. Behavior (1980) 13, 167-170), where aspects of behaviour of the mouse are compared in a lit zone and a dark zone of a two-compartment box.

[1] = tested on: Naive male albino BKW mice; assay: Anti-anxiety test (light/dark two-compartment box, method of Costall et al); assay type: in vivo; settings: 40 min pretreatment, n = 5
Procedure: as §1
Naive male albino BKW mice, 25-30g, were used in all experiments. 10 mice were normally housed in each cage and given free access to food and water. The mice were kept on a 12h light and 12h dark cycle with lights off at 8.00am and on at 8.00pm.
The apparatus used for the detection of changes in anxiety consisted of an open topped box (45 x 27 x 27cm high) one third painted black and illuminated under a dim red light (1 x 60W) and partitioned from the remainder of the box which was painted white and brightly illuminated with a 100W light source located 17cm above the box. Access between these areas was enabled by means of a 7.5 x 7.5cm opening located at floor level in the centre of the partition. The floor area was lined into 9cm squares. The test was conducted between 13.00 and 18.00h in a quiet, darkened room illuminated with red light only. Animals were thus taken in a dark container from a dark holding room to the dark testing room.
Animals that had received drug or vehicle injections were placed individually into the centre of the white area and their behaviour observed over a 5 min period by remote video recording.
Animals were used in treatment groups of 5 and vehicle controls were run on each day of testing. Results were anlysed using Single-Factor Analysis of Variance followed by Dunnett's procedure for comparing all treatments with control.
Compounds of Example 14 and Comparison Example 1 were dissolved in minimum HCI made up to volume with distilled water. Doses were expressed as the base and were administered as a 40 min pretreatment in a volume of 1 mIi100g body weight. Administration was by the subcutaneous route.

[2] = Black Section, 0.1 mg/kg subcutaneous
[3] = Black Section, 1.0 mg/kg subcutaneous
[4] = Black Section, 10.0 mg/kg subcutaneous
[5] = White Section, 0.1 mg/kg subcutaneous
[6] = White Section, 1.0 mg/kg subcutaneous
[7] = White Section, 10.0 mg/kg subcutaneous

Row | Structure (SMILES) | Movement activity (mouse; Dark zone) | Straightenings (mouse; Dark zone) | Movement activity (mouse; Light zone) | Straightenings (mouse; Light zone) | Crossings/5min [1, 2] | Rearings/5 min [1, 2] | Crossings/5min [1, 3] | Rearings/5 min [1, 3] | Crossings/5min [1, 4] | Rearings/5 min [1, 4] | Crossings/5min [1, 5] | Rearings/5 min [1, 5] | Crossings/5min [1, 6] | Rearings/5 min [1, 6] | Crossings/5min [1, 7] | Rearings/5 min [1, 7]
1 | COc1cc(N)c(Cl)cc1C(=O)NC1CN2CCC1CC2 (racemic) [Compound of Example 2] | - | - | + | + |  |  |  |  |  |  |  |  |  |  |  | 
2 | COc1cc(N)c(Cl)cc1C(=O)N[C@@H]1CN2CCC1CC2 [Comparison Example 1, S(-)-4-Amino-N-(3-quinuclidinyl)-5-chloro-2-methoxybenzamide hydrochloride] | ns | ns | ns | ns | 39.4±3.0 | 35.2±3.1 | 37.6±3.8 | 38.1±3.2 | 50.8±5.2 | 48.3±4.1 | 23.2±2.3 | 23.0±2.1 | 26.8±2.7 | 21.5±2.0 | 24.7±2.1 | 24.0±1.9
3 | COc1cc(N)c(Cl)cc1C(=O)N[C@H]1CN2CCC1CC2 [Example 14, R(+)-4-Amino-N-(3-quinuclidinyl)-5-chloro-2-methoxybenzamide hydrochloride] | - | - | + | + | 14.6±1.5^+++ | 13.6±1.1^+++ | 13.6±1.2^+++ | 13.0±1.4^+++ | 17.6±1.4^+++ | 14.7±1.2^+++ | 52.9±5.0 | 64.8±6.0 | 87.4±7.6 | 82.4±7.4 | 73.7±7.2 | 76.2±7.6
